How the values were obtained:
[1] = tested on: HBV; details: cited from earlier work
[2] = tested on: HBV Cp I105V mutant; experiment: HBV core-associated DNA by qPCR in Huh7 cells transfected with Cp mutant plasmid; assay type: cell-based, hepatitis B virus (HBV); details: single dose: DVR-56 250 nM, ZW-935 250 nM, HF9C6 4 μM
Description: (§1) The binding site for HAPs and SBAs has been found using X-ray crystallography and mutagenesis techniques. […] To probe this binding site, HBV-expressing plasmids with mutations in Cp (Y118F, T109S, T109M, T109I, I105V, I105L, and I105T) were generated (Klumpp, et al., Proc. Natl. Acad. Sci. USA 112:15196-15201, 2015).

[3] = tested on: HBV Cp T109S mutant; experiment: as above; assay type: cell-based, hepatitis B virus (HBV); details: single dose: Bay 38-7690 500 nM, DVR-56 250 nM, ZW-935 250 nM, HF9C6 4 μM
Description: as §1

[4] = tested on: HBV Cp T109I mutant; experiment: as above; assay type: cell-based, hepatitis B virus (HBV); details: single dose: Bay 38-7690 500 nM, DVR-56 250 nM, ZW-935 250 nM, HF9C6 4 μM
Description: as §1

[5] = tested on: HBV wild-type (WT) Cp; experiment: HBV core-associated DNA by qPCR in Huh7 cells transfected with wild-type plasmid; assay type: cell-based, hepatitis B virus (HBV); details: Bay 38-7690 500 nM, DVR-56 250 nM, ZW-935 250 nM, HF9C6 4 μM
[6] = Cytotoxicity, Cell Proliferation Kit II (XTT) (Table 2); assay type: cell-based; details: human, HepG2 cells
[7] = Cytotoxicity with the XTT assay (Table 1); details: human, HepAD38 cells
[8] = tested on: HepAD38 cells; experiment: Cytotoxicity with the XTT assay (Table 1)
[9] = tested on: HBV; experiment: Cell-based anti-HBV activity of HF9C6 analogs (Table 2; HBV DNA in HepAD38 cells); details: Hepatitis B virus, Table 2, cell-based, read-out: EC50
Experimental: (§2) HepAD38 cells (5×10^4) were plated in 96-well plates in tet media. The next day, cells were washed 2× with PBS, and the media was replaced with complete media (DMEM, 10% FBS) containing compounds. Fresh complete media with compounds was added again after 2 days. After 2 additional days, cells were washed with PBS, trypsinized, and pelleted by centrifugation. The cell pellet was resuspended in 200 μl PBS, and DNA was extracted and analyzed as above. For dose responses, values were plotted in GraphPad Prism 5 and analyzed with the log (inhibitor) vs. normalized response—variable slope equation.
HepAD38 cells were seeded in 96-well plates (3×10^4 cells/well) in tet media. […] After 2 days, the media was removed, and fresh media containing compounds was added. After 2 additional days, cells were washed with PBS and lysed with 10 mM Tris (pH 7.5), 1mM EDTA, 100mM NaCl, 1% NP-40 at 37° C. for 30 min. 60 μl of lysate was added to 60 μl of 1 M NaOH, 1.5 M NaCl and incubated at RT for 5 min to denature DNA. 120 μl of 1 M Tris (pH 7.4), 2 M NaCl was added. Samples were transferred to positively charged nylon membranes (Roche) using a vacuum dot blot manifold. The wells were washed with 200 μl of 20× SSC (3M NaCl, 300 mM sodium citrate), and the DNA was UV crosslinked to the membranes. […] Membranes were incubated with CDP-STAR® chemiluminescent substrate (Roche), imaged by chemiluminescence, and quantified by densitometry. Values were plotted in GraphPad Prism 5 and analyzed with the log (inhibitor) vs. normalized response—variable slope equation.

[10] = target: T1, HBV capsid protein (Cp) (Hepatitis B virus genotype D subtype ayw, UniProt P03146); details: HepAD38 cells; concentrations up to 20 μM (~5×EC50)
[11] = target: T2, C1502 (HBV capsid protein assembly domain dimer) (Hepatitis B virus genotype D subtype adw, UniProt P03147, R150C); experiment: In vitro capsid assembly analyzed by transmission electron microscopy (TEM); assay type: biochemical; details: C1502 10 μM assembled with compound 20 μM
T2 construct: the 149 amino acid assembly domain of HBV capsid protein; made in house; host or cells: E. coli BL21 (DE3), pET11a
Description: Capsids assembled in the presence of the carrier DMSO were spherical, ˜40 nm in diameter, and dispersed across the TEM grid.

[12] = tested on: HBV; experiment: Antiviral screening / dose response, total intracellular HBV DNA by qPCR in HepAD38 cells; assay type: cell-based, hepatitis B virus (HBV); details: for SI (Selectivity Index): CC50/EC50; for SI (Selectivity Index) / EC50: Table 1; for EC50: Hepatitis B virus, HepAD38 cells, total intracellular HBV DNA as marker
Experimental: HepAD38 cells (ATCC; Ladner, et al., Antimicrob. Agents Chemother. 41:1715-1720, 1997) were maintained in tet media [Dulbecco's Modified Eagle Medium (DMEM) and 10% fetal bovine serum (FBS) plus 0.4 μg/ml tetracycline (tet) and 400 μg/ml G418 (Gibco; Gaithersburg, Md.)]. Cells were incubated at 37° C. with 5% CO2.
Total DNA from HBV-infected cells was extracted using the QIAamp DNA Blood Mini Kit (Qiagen, Germantown, Md.). […] Amplification was conducted by denaturation at 95° C. for 10 min, followed by 40 cycles of denaturation at 95° C. for 15 s and annealing/extension at 60° C. for 1 min using PerfeCTa SYBR® Green FastMix reaction cocktail (Quanta Biosciences, Beverly, Mass.). Amplification was carried out in a PIKOREAL™ Real-Time PCR System. A standard curve was generated with dilutions of the HBV genome-containing plasmid pCMV-HBV-LE-II (Tavis, et al., PLoS Pathogens 9:e1003125, 2013).
as §2
For antiviral screening, HepAD38 cells were treated with 10 μM of each hit compound, and anti-HBV activity was determined by the level of viral DNA.

[13] = target: T1, HBV capsid protein (Cp); details: HepAD38 cells; 20 μM
[14] = tested on: primary human hepatocytes; details: cited from earlier work
[15] = tested on: HBV; details: rodent models; cited from earlier work
[16] = high doses; cited from earlier work

Compound | resistance profile, I105V mutant [2] | resistance profile, T109S mutant [3] | resistance profile, T109I mutant [4] | suppression of viral DNA production [5] [%] | CC50 [6] [µM] | CC50 [7] [µM] | SI (Selectivity Index) [12] | EC50 [12] [µM] | further results
IFN-α | – | – | – | – | – | – | – | – | virological response, share of patients [1]: < 10%
Cc1cc(NC(=O)c2sc(N)c(C(N)=O)c2C)ccc1F [ZW-935, 5-Amino-N2-(4-fluoro-3-methylphenyl)-3-methylthiophene-2,4-dicarboxamide] | does not impart significant resistance | resistance | hypersusceptibility | 75 | > 100 | – | – | – | –
Cc1c(C(=O)Nc2ccccc2)sc(N)c1C(N)=O [HF9C6] | does not impart significant resistance | resistance | hypersusceptibility | 75 | > 100 | > 300 | >83 | 3.6 ± 0.2 | cytotoxicity (in words) [8]: no observable cytotoxicity; EC50 [9]: 34 ± 0.6 µM; Cp levels (Western blot) [10]: did not reduce Cp levels; capsid morphology by TEM [11]: heterogeneous in shape and size, and formed large aggregates on the grid; reduction of HBV DNA ([12]; HepAD38 cells treated with 10 μM, vs DMSO control): ~80%; Cp distribution/aggregation in cells [13]: concentrated in large foci throughout the cell; Cp nuclear localization [13]: excluded from the nucleus
Nc1ccn([C@@H]2CS[C@H](CO)O2)c(=O)n1 [Lamivudine (3TC), Lamivudine, reference compound] | – | – | – | – | – | > 100 | >1,111 | 0.09 ± 0.01 | –
CCOC(=O)C1=C(CN2CCOCC2)NC(c2nccs2)=NC1c1ccc(F)cc1Br (stereo not drawn) [GLS-4, morphothiadine mesilate] | – | – | – | – | – | – | – | – | toxicity to primary human hepatocytes [14]: much less toxic
COC(=O)C1=C(C)NC(c2ncc(F)cc2F)=N[C@H]1c1ccc(F)cc1Cl [Bay 41-4109] | – | – | – | – | – | – | – | – | inhibition of the virus replication cycle [15]: inhibit the virus replication cycle; hepatotoxicity [16]: hepatotoxic
